PubChem BioAssay AID330 (DTP/NCI, 2004)
Inconclusive results and toxic doses are left out. Rule for the calls: active = survival T/C of 150% or more; inactive = T/C below 125% in these data.

Tested on: P388 leukemia ip, CD2F1 mice, survival T/C
Assay: NCI In Vivo Anticancer Drug Screen. Data for tumor model P388 Leukemia (intraperitoneal) in CD2F1 (CDF1) mice
Conditions: endpoint: median survival time, higher = longer survival
Protocol: The antitumor activity of compounds was measured in mice bearing transplantable tumors. Survival or tumor size were measured and the results are expressed as the measurement made in the treated group (T) divided by the measurement made in the vehicle treated control group (C). The tumor model used in this assay is P388 Leukemia (intraperitoneal) in CD2F1 (CDF1) mice

[1] = dose: 12.5 mg/kg/injection, schedule: Q01DX009 (ip), vehicle: Klucel (hydroxypropylcellulose) (HPC)
[2] = dose: 25.0 mg/kg/injection, schedule: Q01DX009 (ip), vehicle: Klucel (hydroxypropylcellulose) (HPC)
[3] = dose: 50.0 mg/kg/injection, schedule: Q01DX009 (ip), vehicle: Klucel (hydroxypropylcellulose) (HPC)
[4] = dose: 100.0 mg/kg/injection, schedule: Q01DX009 (ip), vehicle: Klucel (hydroxypropylcellulose) (HPC)
[5] = dose: 25.0 mg/kg/injection, schedule: Q01DX009 (ip), vehicle: saline with Tween-80
[6] = dose: 50.0 mg/kg/injection, schedule: Q01DX009 (ip), vehicle: saline with Tween-80
[7] = dose: 100.0 mg/kg/injection, schedule: Q01DX009 (ip), vehicle: saline with Tween-80
[8] = dose: 100.0 mg/kg/injection, schedule: Q04DX003 (ip), vehicle: saline
[9] = dose: 200.0 mg/kg/injection, schedule: Q04DX003 (ip), vehicle: saline
[10] = dose: 50.0 mg/kg/injection, schedule: Q01DX009 (ip), vehicle: saline
[11] = dose: 100.0 mg/kg/injection, schedule: Q01DX009 (ip), vehicle: saline
[12] = dose: 200.0 mg/kg/injection, schedule: Q01DX009 (ip), vehicle: saline
[13] = dose: 200.0 mg/kg/injection, schedule: Q01DX009 (ip), vehicle: saline with Tween-80

Measured: T/C

Cc1ccc(C2(COC(=O)c3ccccc3)CO2)c(OC(=O)C(C)C)c1 (centres undefined)
inactive: [1] 99 % of control | [2] 95 % of control | [3] 107 % of control | [4] 105 % of control

Cn1cncc1/C=N\NC(N)=S
inactive: [5] 102 % of control | [6] 88 % of control | dose: 50.0 mg/kg/injection, schedule: Q04DX003 (ip), vehicle: saline 109 % of control | [7] 110 % of control | [8] 102 % of control | [9] 102 % of control

CN(C)CCN(C(=O)C(O)(c1ccccc1)c1ccccc1)c1ccccc1
inactive: [10] 100 % of control | [11] 100 % of control | [12] 107 % of control

CCCCCCCCCCCC(=O)NCCCCCC(=O)NC1C(C)OC(Nc2ncnc3nc[nH]c23)C(O)C1O (centres undefined)
inactive: dose: 0.5 mg/kg/injection, schedule: Q01DX009 (ip), vehicle: water 99 % of control | dose: 1.0 mg/kg/injection, schedule: Q01DX009 (ip), vehicle: water 99 % of control | dose: 2.0 mg/kg/injection, schedule: Q01DX009 (ip), vehicle: water 115 % of control | dose: 4.0 mg/kg/injection, schedule: Q01DX009 (ip), vehicle: water 115 % of control | dose: 8.0 mg/kg/injection, schedule: Q01DX009 (ip), vehicle: distilled water + Tween-80 87 % of control | dose: 8.0 mg/kg/injection, schedule: Q01DX009 (ip), vehicle: water 117 % of control | dose: 16.0 mg/kg/injection, schedule: Q01DX009 (ip), vehicle: distilled water + Tween-80 89 % of control | dose: 32.0 mg/kg/injection, schedule: Q01DX009 (ip), vehicle: distilled water + Tween-80 114 % of control | dose: 64.0 mg/kg/injection, schedule: Q01DX009 (ip), vehicle: distilled water + Tween-80 123 % of control

COc1ccccc1/C=N/N1C(=O)C2C3C=CC(O3)C2C1=O (centres undefined)
inactive: dose: 50.0 mg/kg/injection, schedule: Q01DX005 (ip), vehicle: saline with Tween-80 104 % of control | dose: 100.0 mg/kg/injection, schedule: Q01DX005 (ip), vehicle: saline with Tween-80 89 % of control | dose: 200.0 mg/kg/injection, schedule: Q01DX005 (ip), vehicle: saline with Tween-80 93 % of control

COc1ccc(C2NC(c3ccc(OC)cc3)C3CCCC2C3O)cc1 (centres undefined)
inactive: [8] 100 % of control | [9] 97 % of control | dose: 400.0 mg/kg/injection, schedule: Q04DX003 (ip), vehicle: saline 94 % of control

NC(N)=O
inactive: dose: 12.5 mg/kg/injection, schedule: Q01DX009 (ip), vehicle: saline 100 % of control | dose: 25.0 mg/kg/injection, schedule: Q01DX009 (ip), vehicle: saline 105 % of control | [10] 105 % of control | [11] 102 % of control | [12] 100 % of control | dose: 400.0 mg/kg/injection, schedule: Q01DX009 (ip), vehicle: saline 98 % of control

COc1ccccc1C1OC(N)=C(O)C1=O (centres undefined)
inactive: dose: 60.0 mg/kg/injection, schedule: Q01DX005 (ip), vehicle: Klucel (hydroxypropylcellulose) (HPC) 97 % of control | dose: 120.0 mg/kg/injection, schedule: Q01DX005 (ip), vehicle: Klucel (hydroxypropylcellulose) (HPC) 103 % of control | dose: 240.0 mg/kg/injection, schedule: Q01DX005 (ip), vehicle: Klucel (hydroxypropylcellulose) (HPC) 104 % of control

COc1cc2c(/C=N/NS(=O)(=O)c3ccc(C)cc3)c(Cl)[nH]c2cc1C
inactive: [1] 103 % of control | [2] 95 % of control | [3] 92 % of control | dose: 100.0 mg/kg/injection, schedule: Q01DX001 (ip), vehicle: Klucel (hydroxypropylcellulose) (HPC) 100 % of control | dose: 200.0 mg/kg/injection, schedule: Q01DX001 (ip), vehicle: Klucel (hydroxypropylcellulose) (HPC) 120 % of control | dose: 400.0 mg/kg/injection, schedule: Q01DX001 (ip), vehicle: Klucel (hydroxypropylcellulose) (HPC) 100 % of control

COc1ccc(C(C)=O)cc1CS/C(=N/S(=O)(=O)c1ccccc1)Nc1cccc(Cl)c1Cl
inactive: [3] 101 % of control | [4] 101 % of control | dose: 200.0 mg/kg/injection, schedule: Q01DX009 (ip), vehicle: Klucel (hydroxypropylcellulose) (HPC) 98 % of control

CN(C)C(CCC(=O)O)C(=O)O (centres undefined)
inactive: dose: 50.0 mg/kg/injection, schedule: Q01DX005 (ip), vehicle: saline 102 % of control | dose: 100.0 mg/kg/injection, schedule: Q01DX005 (ip), vehicle: saline 97 % of control | dose: 200.0 mg/kg/injection, schedule: Q01DX005 (ip), vehicle: saline 98 % of control

C[n+]1c2ccccc2c2c3c(cccc31)C(=O)c1cc(Cl)ccc1-2 (tested in a mixture with another compound)
inactive: dose: 3.12 mg/kg/injection, schedule: Q01DX009 (ip), vehicle: water 106 % of control | dose: 6.25 mg/kg/injection, schedule: Q01DX009 (ip), vehicle: water 98 % of control | dose: 12.5 mg/kg/injection, schedule: Q01DX009 (ip), vehicle: water 98 % of control

Cc1ccc(CO)c2ccccc12
inactive: [5] 96 % of control | [6] 107 % of control | [7] 96 % of control | [13] 96 % of control

O=C(N/N=C\c1ccccc1O)c1cccc2ccccc12
inactive: dose: 50.0 mg/kg/injection, schedule: Q01DX005 (ip), vehicle: Klucel (hydroxypropylcellulose) (HPC) 99 % of control | dose: 100.0 mg/kg/injection, schedule: Q01DX005 (ip), vehicle: Klucel (hydroxypropylcellulose) (HPC) 99 % of control | dose: 200.0 mg/kg/injection, schedule: Q01DX005 (ip), vehicle: Klucel (hydroxypropylcellulose) (HPC) 102 % of control

CSc1cccc(NC(=O)OC2CCCCCCCCCCC2)c1
inactive: [6] 89 % of control | [7] 89 % of control | [13] 92 % of control

Cc1cc2cc3c(C)cc(=O)oc3c(C)c2o1
inactive: [7] 118 % of control | [13] 112 % of control | dose: 400.0 mg/kg/injection, schedule: Q01DX009 (ip), vehicle: saline with Tween-80 102 % of control

O=C(/C=C/c1ccc2c(c1)OCO2)c1ccc(Cl)cc1
inactive: [6] 86 % of control | [7] 100 % of control | [13] 95 % of control

COc1c2occc2c(NC(=O)C(Cl)(Cl)Cl)c2ccc(=O)oc12
inactive: dose: 5.0 mg/kg/injection, schedule: Q04DX002 (ip), vehicle: saline with Tween-80 102 % of control | dose: 10.0 mg/kg/injection, schedule: Q04DX002 (ip), vehicle: saline with Tween-80 101 % of control | dose: 20.0 mg/kg/injection, schedule: Q04DX002 (ip), vehicle: saline with Tween-80 102 % of control

N#CN=[N+]([O-])c1ccc(C(=O)O)cc1
inactive: dose: 7.5 mg/kg/injection, schedule: Q04DX003 (ip), vehicle: Klucel (hydroxypropylcellulose) (HPC) 97 % of control | dose: 7.5 mg/kg/injection, schedule: Q04DX003 (ip), vehicle: saline with Tween-80 111 % of control | dose: 15.0 mg/kg/injection, schedule: Q04DX003 (ip), vehicle: Klucel (hydroxypropylcellulose) (HPC) 105 % of control | dose: 15.0 mg/kg/injection, schedule: Q04DX003 (ip), vehicle: saline with Tween-80 112 % of control | dose: 30.0 mg/kg/injection, schedule: Q04DX003 (ip), vehicle: saline with Tween-80 124 % of control

OC(CNc1c2ccccc2nc2ccccc12)COc1c2ccccc2nc2ccccc12 (centres undefined)
inactive: dose: 60.0 mg/kg/injection, schedule: Q01DX005 (ip), vehicle: saline with Tween-80 95 % of control | dose: 120.0 mg/kg/injection, schedule: Q01DX005 (ip), vehicle: saline with Tween-80 92 % of control | dose: 240.0 mg/kg/injection, schedule: Q01DX005 (ip), vehicle: saline with Tween-80 100 % of control
